# According to patent US20260242419A1, “A CYCLIC PEPTIDE FOR TRAPPING INTERLEUKIN-1 BETA” (Merck Sharp & Dohme LLC, priority 2023, published 2026):
# pIC50: −log10 of the molar value. Starred links: 1 amine or outer side, 2 acyl side, 3 side chain; linkers in the order of their positions; H or OH if unused. Non-standard residues stand in square brackets, D forms with d. Residues, ends and D or L forms follow the SMILES beside them. Trp(βS-Me,4-F) = C[C@@H](c1c[nH]c2cccc(F)c12)[C@H](N)C(=O)O; Bip(4'-COOH) = N[C@@H](Cc1ccc(-c2ccc(C(=O)O)cc2)cc1)C(=O)O; Ala(1-bicyclo(1.1.1)pentyl) = N[C@@H](CC12CC(C1)C2)C(=O)O; Phe(4-(4-pyridyl)) = N[C@@H](Cc1ccc(-c2ccncc2)cc1)C(=O)O; dPro(4R-Bzl(4-F)) = O=C(O)[C@H]1C[C@@H](Cc2ccc(F)cc2)CN1; dPro(3S-(4-F-Bn)) = O=C(O)[C@@H]1NCC[C@@H]1Cc1ccc(F)cc1; X31 = O=C(O)c1ccc([C@@H](O)[C@H](N[*:1])C(=O)[*:2])cc1; X27 = COc1ncc(-c2ccc(C[C@H](N[*:1])C(=O)[*:2])cc2)cn1; X32 = Cn1cnc(-c2ccc(C[C@H](N[*:1])C(=O)[*:2])cc2)c1; X12 = Cn1ccnc1-c1ccc(C[C@H](N[*:1])C(=O)[*:2])cc1; X40 = O=C([C@H](Cc1ccc(-c2cncnc2)cc1)N[*:1])[*:2]; X4 = O=C([C@H]1[C@@H](Cc2ccncc2)CCN1[*:1])[*:2]; X41 = O=C([C@@H](N[*:1])[C@@H](O)c1ccncc1)[*:2]; Ala(pyrimidin-5-yl) = N[C@@H](Cc1cncnc1)C(=O)O; Phe(4-COOH) = N[C@@H](Cc1ccc(C(=O)O)cc1)C(=O)O; X30 = O=C([C@@H](N[*:1])[C@H](O)c1ccncc1)[*:2]; Pro(cis-4-F) = O=C(O)[C@@H]1C[C@H](F)CN1; Phe(4-F) = N[C@@H](Cc1ccc(F)cc1)C(=O)O; X6 = O=C([C@H](Cc1ccncn1)N[*:1])[*:2]; d(αMeD) = C[C@@](N)(CC(=O)O)C(=O)O; 4Pal = N[C@@H](Cc1ccncc1)C(=O)O; Dab = NCC[C@H](N)C(=O)O; Aib = CC(C)(N)C(=O)O
# Target: T1, IL-1β (Homo sapiens, UniProt P01584)
# T1 construct: purchased BioLegend 579404
# T1 sequence (P01584 117-269): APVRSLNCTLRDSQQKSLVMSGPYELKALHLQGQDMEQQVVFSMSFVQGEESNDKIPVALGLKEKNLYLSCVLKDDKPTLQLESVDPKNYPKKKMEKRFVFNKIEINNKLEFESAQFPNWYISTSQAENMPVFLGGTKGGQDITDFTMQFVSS
# Experiment: IL-6 assay in MRC5 cells: inhibition of IL-1β induced IL-6 secretion (AlphaLISA)
# Type: cell-based
# Conditions: inhibition of IL-1β induced IL-6 secretion in MRC5 cells; compound pre-incubated 1 hour with recombinant human IL-1β; read-out: MRC5 IC50
# Procedure, shortened: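 Compound was pre-incubated 1 h at ambient temperature with recombinant human IL-1β at 2λ EC80 before adding human lung fibroblast MRC5 cells (3000/well) in EMEM with 0.025% BSA. After overnight culture at 37 °C, 5% CO2, secreted IL-6 in conditioned medium was measured by AlphaLISA; IC50 from 4-parameter logistic fits.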
row,Structure (SMILES),pIC50
1,"C[C@@H](c1c[nH]c2cccc(F)c12)[C@@H]1NC(=O)[C@@H]2C[C@H](F)CN2C(=O)CNC(=O)[C@H](Cc2ccc(C(=O)O)cc2)NC(=O)[C@H](Cc2ccncc2)NC(=O)[C@H](Cc2ccc(-c3ccc(C(=O)O)cc3)cc2)NC(=O)[C@H]2C[C@@H](Cc3ccc(F)cc3)CN2C(=O)CNC(=O)[C@H](CCN)NC(=O)[C@H](CCC(N)=O)NC(=O)[C@H]([C@@H](O)c2ccncc2)NC(=O)C(C)(C)NC(=O)[C@H](Cc2c[nH]c3ccccc23)NC(=O)[C@H](CO)NC(=O)C(C)(C)NC1=O [Example 272] (cyclo([Bip(4'-COOH)][4Pal][Phe(4-COOH)]G[Pro(cis-4-F)][Trp(βS-Me,4-F)][Aib]SW[Aib][X41]Q[Dab]G[dPro(4R-Bzl(4-F))]))",10.74
2,"C[C@@H](c1c[nH]c2cccc(F)c12)[C@@H]1NC(=O)[C@@H]2C[C@H](F)CN2C(=O)CNC(=O)[C@H](Cc2ccc(C(=O)O)cc2)NC(=O)[C@H](Cc2ccncc2)NC(=O)[C@H](Cc2ccc(-c3ccc(C(=O)O)cc3)cc2)NC(=O)[C@H]2C[C@@H](Cc3ccc(F)cc3)CN2C(=O)CNC(=O)[C@H](CCN)NC(=O)[C@H](CCC(N)=O)NC(=O)[C@H]([C@H](O)c2ccncc2)NC(=O)C(C)(C)NC(=O)[C@H](Cc2c[nH]c3ccccc23)NC(=O)[C@H](CO)NC(=O)C(C)(C)NC1=O [Example 273] (cyclo([Bip(4'-COOH)][4Pal][Phe(4-COOH)]G[Pro(cis-4-F)][Trp(βS-Me,4-F)][Aib]SW[Aib][X30]Q[Dab]G[dPro(4R-Bzl(4-F))]))",10.89
3,"C[C@@H](c1c[nH]c2cccc(F)c12)[C@@H]1NC(=O)[C@@H]2C[C@H](F)CN2C(=O)CNC(=O)[C@H](Cc2ccc(C(=O)O)cc2)NC(=O)[C@H]([C@H](O)c2ccncc2)NC(=O)[C@H](Cc2ccc(-c3ccc(C(=O)O)cc3)cc2)NC(=O)[C@H]2C[C@@H](Cc3ccc(F)cc3)CN2C(=O)CNC(=O)[C@H](CCN)NC(=O)[C@H](CCC(N)=O)NC(=O)[C@H](Cc2cncnc2)NC(=O)C(C)(C)NC(=O)[C@H](Cc2c[nH]c3ccccc23)NC(=O)[C@H](CO)NC(=O)C(C)(C)NC1=O [Example 274] (cyclo([Bip(4'-COOH)][X30][Phe(4-COOH)]G[Pro(cis-4-F)][Trp(βS-Me,4-F)][Aib]SW[Aib][Ala(pyrimidin-5-yl)]Q[Dab]G[dPro(4R-Bzl(4-F))]))",10.59
4,"C[C@@H](c1c[nH]c2cccc(F)c12)[C@@H]1NC(=O)[C@@H]2C[C@H](F)CN2C(=O)CNC(=O)[C@H]([C@H](O)c2ccc(C(=O)O)cc2)NC(=O)[C@H](Cc2ccncc2)NC(=O)[C@H](Cc2ccc(-c3ccc(C(=O)O)cc3)cc2)NC(=O)[C@H]2C[C@@H](Cc3ccc(F)cc3)CN2C(=O)CNC(=O)[C@H](CCN)NC(=O)[C@H](CCC(N)=O)NC(=O)[C@H](Cc2cncnc2)NC(=O)C(C)(C)NC(=O)[C@H](Cc2c[nH]c3ccccc23)NC(=O)[C@H](CO)NC(=O)C(C)(C)NC1=O [Example 275] (cyclo([Bip(4'-COOH)][4Pal][X31]G[Pro(cis-4-F)][Trp(βS-Me,4-F)][Aib]SW[Aib][Ala(pyrimidin-5-yl)]Q[Dab]G[dPro(4R-Bzl(4-F))]))",10.74
5,"C[C@@H](c1c[nH]c2cccc(F)c12)[C@@H]1NC(=O)[C@@H]2C[C@H](F)CN2C(=O)CNC(=O)[C@H](Cc2ccc(C(=O)O)cc2)NC(=O)[C@H](Cc2ccncc2)NC(=O)[C@H](Cc2ccc(-c3ccc(C(=O)O)cc3)cc2)NC(=O)[C@H]2C[C@@H](Cc3ccc(F)cc3)CN2C(=O)CNC(=O)[C@H](CCN)NC(=O)[C@H](CCC(N)=O)NC(=O)[C@H](Cc2c[nH]cn2)NC(=O)C(C)(C)NC(=O)[C@H](Cc2c[nH]c3ccccc23)NC(=O)[C@H](CCC(=O)O)NC(=O)C(C)(C)NC1=O [Example 276] (cyclo([Bip(4'-COOH)][4Pal][Phe(4-COOH)]G[Pro(cis-4-F)][Trp(βS-Me,4-F)][Aib]EW[Aib]HQ[Dab]G[dPro(4R-Bzl(4-F))]))",10.77
6,"C[C@@H](c1c[nH]c2cccc(F)c12)[C@@H]1NC(=O)[C@@H]2C[C@H](F)CN2C(=O)CNC(=O)[C@H](Cc2ccc(C(=O)O)cc2)NC(=O)[C@H](Cc2ccncc2)NC(=O)[C@H](Cc2ccc(F)cc2)NC(=O)[C@H]2[C@@H](Cc3ccc(F)cc3)CCN2C(=O)CNC(=O)[C@H](CCN)NC(=O)[C@H](CCC(N)=O)NC(=O)[C@H](Cc2cncnc2)NC(=O)[C@@](C)(CC(=O)O)NC(=O)[C@H](Cc2c[nH]c3ccccc23)NC(=O)[C@H](CO)NC(=O)C(C)(C)NC1=O [Example 277] (cyclo([Phe(4-F)][4Pal][Phe(4-COOH)]G[Pro(cis-4-F)][Trp(βS-Me,4-F)][Aib]SW[d(αMeD)][Ala(pyrimidin-5-yl)]Q[Dab]G[dPro(3S-(4-F-Bn))]))",10.64
7,"C[C@@H](c1c[nH]c2cccc(F)c12)[C@@H]1NC(=O)[C@@H]2C[C@H](F)CN2C(=O)CNC(=O)[C@H](Cc2ccc(C(=O)O)cc2)NC(=O)[C@H](Cc2ccncc2)NC(=O)[C@H](Cc2ccc(O)cc2)NC(=O)[C@H]2[C@@H](Cc3ccc(F)cc3)CCN2C(=O)CNC(=O)[C@H](CCN)NC(=O)[C@H](CCC(N)=O)NC(=O)[C@H](Cc2cncnc2)NC(=O)[C@@](C)(CC(=O)O)NC(=O)[C@H](Cc2c[nH]c3ccccc23)NC(=O)[C@H](CO)NC(=O)C(C)(C)NC1=O [Example 278] (cyclo(Y[4Pal][Phe(4-COOH)]G[Pro(cis-4-F)][Trp(βS-Me,4-F)][Aib]SW[d(αMeD)][Ala(pyrimidin-5-yl)]Q[Dab]G[dPro(3S-(4-F-Bn))]))",10.68
8,"C[C@@H](c1c[nH]c2cccc(F)c12)[C@@H]1NC(=O)[C@@H]2C[C@H](F)CN2C(=O)CNC(=O)[C@H](Cc2ccc(C(=O)O)cc2)NC(=O)[C@H](Cc2ccncc2)NC(=O)[C@H](Cc2ccc(-c3cn(C)cn3)cc2)NC(=O)[C@H]2[C@@H](Cc3ccc(F)cc3)CCN2C(=O)CNC(=O)[C@H](CCN)NC(=O)[C@H](CCC(N)=O)NC(=O)[C@H](Cc2cncnc2)NC(=O)[C@@](C)(CC(=O)O)NC(=O)[C@H](Cc2c[nH]c3ccccc23)NC(=O)[C@H](CO)NC(=O)C(C)(C)NC1=O [Example 279] (cyclo([X32][4Pal][Phe(4-COOH)]G[Pro(cis-4-F)][Trp(βS-Me,4-F)][Aib]SW[d(αMeD)][Ala(pyrimidin-5-yl)]Q[Dab]G[dPro(3S-(4-F-Bn))]))",10.89
9,"C[C@@H](c1c[nH]c2cccc(F)c12)[C@@H]1NC(=O)[C@@H]2C[C@H](F)CN2C(=O)CNC(=O)[C@H](Cc2ccc(C(=O)O)cc2)NC(=O)[C@H](Cc2ccncc2)NC(=O)[C@H](Cc2ccc(-c3nccn3C)cc2)NC(=O)[C@H]2[C@@H](Cc3ccc(F)cc3)CCN2C(=O)CNC(=O)[C@H](CCN)NC(=O)[C@H](CCC(N)=O)NC(=O)[C@H](Cc2cncnc2)NC(=O)[C@@](C)(CC(=O)O)NC(=O)[C@H](Cc2c[nH]c3ccccc23)NC(=O)[C@H](CO)NC(=O)C(C)(C)NC1=O [Example 280] (cyclo([X12][4Pal][Phe(4-COOH)]G[Pro(cis-4-F)][Trp(βS-Me,4-F)][Aib]SW[d(αMeD)][Ala(pyrimidin-5-yl)]Q[Dab]G[dPro(3S-(4-F-Bn))]))",10.80
10,"COc1ncc(-c2ccc(C[C@@H]3NC(=O)[C@H]4[C@@H](Cc5ccc(F)cc5)CCN4C(=O)CNC(=O)[C@H](CCN)NC(=O)[C@H](CCC(N)=O)NC(=O)[C@H](Cc4cncnc4)NC(=O)[C@@](C)(CC(=O)O)NC(=O)[C@H](Cc4c[nH]c5ccccc45)NC(=O)[C@H](CO)NC(=O)C(C)(C)NC(=O)[C@H]([C@@H](C)c4c[nH]c5cccc(F)c45)NC(=O)[C@@H]4C[C@H](F)CN4C(=O)CNC(=O)[C@H](Cc4ccc(C(=O)O)cc4)NC(=O)[C@H](Cc4ccncc4)NC3=O)cc2)cn1 [Example 281] (cyclo([X27][4Pal][Phe(4-COOH)]G[Pro(cis-4-F)][Trp(βS-Me,4-F)][Aib]SW[d(αMeD)][Ala(pyrimidin-5-yl)]Q[Dab]G[dPro(3S-(4-F-Bn))]))",10.92
11,"C[C@@H](c1c[nH]c2cccc(F)c12)[C@@H]1NC(=O)[C@@H]2C[C@H](F)CN2C(=O)CNC(=O)[C@H](Cc2ccc(C(=O)O)cc2)NC(=O)[C@H](Cc2ccncc2)NC(=O)[C@H](Cc2ccc(-c3cncnc3)cc2)NC(=O)[C@H]2[C@@H](Cc3ccc(F)cc3)CCN2C(=O)CNC(=O)[C@H](CCN)NC(=O)[C@H](CCC(N)=O)NC(=O)[C@H](Cc2cncnc2)NC(=O)[C@@](C)(CC(=O)O)NC(=O)[C@H](Cc2c[nH]c3ccccc23)NC(=O)[C@H](CO)NC(=O)C(C)(C)NC1=O [Example 282] (cyclo([X40][4Pal][Phe(4-COOH)]G[Pro(cis-4-F)][Trp(βS-Me,4-F)][Aib]SW[d(αMeD)][Ala(pyrimidin-5-yl)]Q[Dab]G[dPro(3S-(4-F-Bn))]))",10.85
12,"C[C@@H](c1c[nH]c2cccc(F)c12)[C@@H]1NC(=O)[C@@H]2C[C@H](F)CN2C(=O)CNC(=O)[C@H](Cc2ccc(C(=O)O)cc2)NC(=O)[C@H](Cc2ccncc2)NC(=O)[C@H](Cc2ccc(-c3ccncc3)cc2)NC(=O)[C@H]2[C@@H](Cc3ccc(F)cc3)CCN2C(=O)CNC(=O)[C@H](CCN)NC(=O)[C@H](CCC(N)=O)NC(=O)[C@H](Cc2cncnc2)NC(=O)[C@@](C)(CC(=O)O)NC(=O)[C@H](Cc2c[nH]c3ccccc23)NC(=O)[C@H](CO)NC(=O)C(C)(C)NC1=O [Example 283] (cyclo([Phe(4-(4-pyridyl))][4Pal][Phe(4-COOH)]G[Pro(cis-4-F)][Trp(βS-Me,4-F)][Aib]SW[d(αMeD)][Ala(pyrimidin-5-yl)]Q[Dab]G[dPro(3S-(4-F-Bn))]))",10.80
13,"C[C@@H](c1c[nH]c2cccc(F)c12)[C@@H]1NC(=O)[C@@H]2C[C@H](F)CN2C(=O)CNC(=O)[C@H](Cc2ccc(C(=O)O)cc2)NC(=O)[C@H](CC23CC(C2)C3)NC(=O)[C@H](Cc2ccc(-c3ccc(C(=O)O)cc3)cc2)NC(=O)[C@H]2[C@@H](Cc3ccncc3)CCN2C(=O)CNC(=O)[C@H](CCN)NC(=O)[C@H](CCC(N)=O)NC(=O)[C@H](Cc2ccncn2)NC(=O)[C@@](C)(CC(=O)O)NC(=O)[C@H](Cc2c[nH]c3ccccc23)NC(=O)[C@H](CO)NC(=O)C(C)(C)NC1=O [Example 284] (cyclo([Bip(4'-COOH)][Ala(1-bicyclo(1.1.1)pentyl)][Phe(4-COOH)]G[Pro(cis-4-F)][Trp(βS-Me,4-F)][Aib]SW[d(αMeD)][X6]Q[Dab]G[X4]))",10.82
